Literature values as cited in US6573299B1, “Method and compositions for treatment of the aging eye” (Advanced Medical Instruments, priority 1999, dated 2003).

Legend:
[1] = test system: tumor necrosis factor-alpha (TNF-alpha) and nitric oxide production
retinal ganglion cells = conditions: treated animals
[2] = long term high intake, greater than 1,000 mg/day
[3] = diet of 6 mg of lutein per day
[4] = not given; remark: listed apart in the source

In the case of Oc1ccc(C=Cc2cc(O)cc(O)c2)cc1 [Resveratrol, 3,5,4′-trihydroxystilbene], the “TNF-alpha and nitric oxide production” value [1] is listed as “inhibit tumor necrosis factor-alpha (TNF-alpha) and nitric oxide production” and the “nitric oxide synthase inhibition” value (nitric oxide synthase) is listed as “suppresses nitric oxide synthase”.
In the case of N=C(N)NN [aminoguanidine], the “loss of retinal ganglion cells” value (retinal ganglion cells) is given as “reduction in the loss of retinal ganglion cells”.
For O=C1O[C@H]([C@@H](O)CO)C(O)=C1O [ascorbic acid], the risk of cataracts [2] is listed as “substantially reduced risk of cataracts”.
In the case of CCCCCCCCCCCCCCCC(=O)OC[C@H](O)[C@H]1OC(=O)C(O)=C1O [ascorbyl palmitate], the “erythema from UV injured skin” value (5% lotion) is given as “effective in reducing erythema” and the “erythema after exposure to UVB” value (skin pretreated topically, lecithin gel base, compared to untreated skin) is given as “decreased erythema”.
For CC1=C[C@H](O)CC(C)(C)[C@H]1/C=C/C(C)=C/C=C/C(C)=C/C=C/C=C(C)/C=C/C=C(C)/C=C/C1=C(C)C[C@@H](O)CC1(C)C [lutein], the “lower prevalence of AMD” value [3] is given as 43%.
In the case of Zinc, the “nitric oxide synthase inhibition” value (nitric oxide synthase) is listed as “very potent inhibitor”, the “loss of visual acuity in patients with AMD” value ([4]; clinical trial, high-dose zinc supplementation) is listed as “reduction in the loss of visual acuity” and the AMD ([4]; study published in 1988) is listed as “improved AMD”.
